Data: patent US5648381A, “Derivatives of indan-1,3-dione and indan-1,2,3-trione, methods of preparing them and therapeutic use thereof” (Innothera, priority 1992, dated 1997)

Columns and labels:
[1] = test system: oedema and leucocyte migration in the pleural cavity; assay: Carrageenin-induced pleurisy in the rat; assay type: in vivo; conditions: intraperitoneally twice 20 mg/kg, six hours after carrageenin
Procedure: (§1) In the in vivo test, the products were administered intravenously in the form of a pure aqueous solution or intraperitoneally in the form of an aqueous solution optionally containing DMSO or orally in solution or in suspension in carboxymethyl cellulose or in a composite aqueous solution containing Tween® and DMSO in certain cases.
The compounds in Examples 1, 3 and 11 and 2-hydroxy-2-(3-methoxybenzoyl hydrazino)-indan-1,3-dione reduce vascular permeability by 10 to 50% when measured one to two hours after intraperitoneal administration of 5-20 mg/kg and 2 to 4 hours after oral administration of 5-20 mg/kg to the rat. The compound in Example 9 and 2-isonicotinoyl hydrazonoindan-1,3-dione, administered intraperitoneally twice in doses of 20 mg/kg, inhibit oedema and leucocyte migration in the pleural cavity, six hours after injection of carrageenin in the model of pleurisy in the rat.

[2] = test system: saphena veins of rabbits; assay: Contraction of isolated saphena veins produced by depolarisation (KCl, hyperpotassic solution); conditions: KCl 40 mM, compound 10 nM to 30 μM, rabbit; for EC50: Oryctolagus cuniculus, read-out: ED50 for increase in contractions of the saphena veins produced by KCl
Procedure: (§2) In the in vitro test, the compounds were solubilised in aqueous solution, either pure or containing DMSO or alcohol.
The contractile effect was measured in vitro:
by the contractile force exerted by vascular rings, either quiescent or stimulated (electrically or by physiological agents) and maintained under isometric conditions, and
The formula (A) compounds and their salts, if any, increase the contraction of animal saphena veins produced by noradrenalin and depolarisation (hyperpotassic solution) without in most cases affecting the arterial contractile responses. For example, 2-hydroxy-2-(2-methoxybenzoyl hydrazino)-indan-1,3-dione and the compound in Example 22 (10 nM to 30 μM) produce a more than 50% increase (ED50 ±0.3 microM) in contractions of the saphena veins of rabbits produced by KCl (40 mM).

[3] = Toxicity, single oral administration to the mouse; assay type: in vivo; conditions: 1 g/kg
Description: The formula (A) compounds and their salts if any have very low toxicity.

[4] = Free radical trapping (DPPH) effect; conditions: in vitro, DPPH model
Description: as §2
The overall "free radical trapping" effect was studied in vitro in a model using 1,1-diphenyl-2-picrylhydrazyl (DPPH) as stable free radical, the method being derived from that described by Lamaison et al., Plantes Medic. et phytotheraphie, XXII, 1988, 231-234.

[5] = test system: basic venous tone of the rat; assay: Basic venous tone and arterial pressure in vivo (normal and after cardiac arrest); conditions: 1 to 3 picomols intravenously
Procedure: as §1
In vivo, the arterial and venous pressure was measured under normal conditions and after cardiac arrest. During cardiac arrest, the venous tone was calculated from the venous and arterial pressure measured at equilibrium and corrected in dependence on the relative differences in compliance between these two networks (Samar and Coleman, Am. J. Physiol., 1978, 234:H94-100; Yamamoto et al., Am. J. Physiol., 1980, 238:H823-828).

For `O=C(NN=c1c(=O)c2ccccc2c1=O)c1ccncc1` [2-isonicotinoyl hydrazonoindan-1,3-dione], which “inhibition of leucocyte migration in the pleural cavity” value [1] is on record?
Its value is “inhibit”.

What about the inhibition of oedema [1] of the same compound?
The inhibition of oedema was “inhibit”.

With `COC(=O)NN=c1c(=O)c2ccccc2c1=O` [Example 22, 2-methoxycarbonyl hydrazonoindan-1,3-dione] as the compound, how does the “increase in contractions of the saphena veins produced by KCl” value [2] read?
The value was “more than 50%”.

And the EC50 [2]?
Its EC50 is about 300 nM.

Which results are given for `O=c1c(=NNc2ccccc2)c(=O)c2ccccc12` [2-phenyl hydrazonoindan-1,3-dione]?
deaths [3]: no deaths; observed effects ([3]; in certain cases): coloured diarrhoea and coloured urine

For `O=C(NNC1(O)C(=O)c2ccccc2C1=O)c1ccccc1O` [Example 9, 2-hydroxy-2-(2-hydroxybenzoylhydrazino)-indan-1,3-dione], which “inhibition of leucocyte migration in the pleural cavity” value [1] is on record?
Its value is “inhibit”.

What about the inhibition of oedema [1] of the same compound?
Its inhibition of oedema is “inhibit”.

And the maximum anti-radical effect [4]?
The maximum anti-radical effect was “more than 95%”.

With `COc1ccc2c(=O)c(=NNc3cccc(F)c3)c(=O)c2c1` [2-(3-fluorophenyl hydrazono)-5-methoxyindan-1,3-dione] as the compound, how does the maximum anti-radical effect [4] read?
The maximum anti-radical effect was “more than 95%”.

What does the source list for `COc1ccc(C(=O)NNC2(O)C(=O)c3ccccc3C2=O)cc1OC` [Example 11, 2-(3,4-dimethoxybenzoylhydrazino)-2-hydroxyindan-1,3-dione]?
effect on arterial pressure [5]: without affecting the arterial pressure; increase in the basic venous tone [5]: more than 20%

Which “increase in the basic venous tone” value [5] does the source give for `O=C(NNC1(O)C(=O)c2ccccc2C1=O)c1ccccc1` [Example 3, 2-benzoyl hydrazino-2-hydroxy-indan-1,3-dione] here?
The value was “more than 20%”.

Which results are given for `COc1ccccc1C(=O)NNC1(O)C(=O)c2ccccc2C1=O` [2-hydroxy-2-(2-methoxybenzoyl hydrazino)-indan-1,3-dione]?
increase in contractions of the saphena veins produced by KCl [2]: more than 50%; EC50 [2]: ~300 nM

Which results are given for `Cc1ccccc1C(=O)NNC1(O)C(=O)c2ccccc2C1=O` [Example 6, 2-hydroxy-2-(2-methylbenzoylhydrazino)-indan-1,3-dione]?
effect on arterial pressure [5]: without affecting the arterial pressure; increase in the basic venous tone [5]: more than 20%
